According to ChEMBL document CHEMBL5036383, “Azapodophyllotoxin Causes Lymphoma and Kidney Cancer Regression by Disrupting Tubulin and Monoglycerols” (2022):
Active and inactive are the calls of the source. No cut-off for these calls is given here.

What was measured:
A498 [1] = assay: Anticancer activity against human A498 cells assessed as reduction of cell viability at 70 nM relative to control; type: functional
[2] = Anticancer activity against human 6780 cell cells assessed as reduction of cell viability at 140 nM relative to control; type: functional
KOPTK1 [3] = assay: Anticancer activity against human KOPT-K1 cells assessed as reduction of cell viability at 280 nM relative to control; type: functional
Mus musculus [4] = assay: Antitubulin activity against human CCRF-CEM cells xenografted in IT dosed mouse assessed as fold decrease in tubulin fine needle aspirates treated for 1 week by nano-immuno assay relative to control; type: functional; settings: time 1 weeks
KOPTK1 [5] = assay: Anticancer activity against human KOPT-K1 cells assessed as reduction of cell viability at 70 nM relative to control; type: functional
[6] = Anticancer activity against transgenic mouse RCC E28 cells assessed as reduction of cell proliferation at 140 nM for 48 hrs relative to 70 uM treatment; type: functional
[7] = Anticancer activity against human P493-6 cells assessed as reduction of cell viability at 280 nM relative to control; type: functional
[8] = Anticancer activity against human P493-6 cells assessed as reduction of cell viability at 70 nM relative to control; type: functional
CCRF-CEM [9] = assay: Anticancer activity against human CCRF-CEM cells assessed as reduction of cell viability at 280 nM relative to control; type: functional
[10] = Anticancer activity against human DND41 cells assessed as reduction of cell viability at 70 nM relative to control; type: functional
[11] = Anticancer activity against human 6780 cell cells assessed as reduction of cell viability at 280 nM relative to control; type: functional
CCRF-CEM [12] = assay: Inhibition of lipid metabolism in human CCRF-CEM cells assessed as increase in mono glycerol level measured after 1 week treatment by DESI-MSI; type: functional, cell-based; settings: time 1.0 weeks
Mus musculus [13] = assay: Antitubulin activity against human CCRF-CEM cells xenografted in IT dosed mouse assessed as decrease in tubulin level treated for 1 week by nano-immuno assay; type: functional, organism-based; settings: time 1.0 weeks
[14] = Anticancer activity against human P493-6 cells assessed as reduction of cell viability at 140 nM relative to control; type: functional
KOPTK1 [15] = assay: Anticancer activity against human KOPT-K1 cells assessed as reduction of cell viability at 140 nM relative to control; type: functional
A498 [16] = assay: Antitumour activity against human A498 cells xenografted in mouse assessed as reduction of tumour weight, IT measured after 1 week; type: functional, cell-based; settings: time 1.0 weeks
CCRF-CEM [17] = assay: Anticancer activity against human CCRF-CEM cells assessed as reduction of cell viability at 140 nM relative to control; type: functional
CCRF-CEM [18] = assay: Anticancer activity against human CCRF-CEM cells assessed as reduction of cell viability at 70 nM relative to control; type: functional
[19] = Anticancer activity against human 6780 cell cells assessed as reduction of cell viability at 70 nM relative to control; type: functional
[20] = Anticancer activity against transgenic mouse RCC E28 cells assessed as reduction of cell proliferation at 70 nM for 48 hrs relative to control; type: functional; parameters: scale not given: the % may be the effect or the level left
Tubulin (Homo sapiens) = Tubulin (Homo sapiens) (UniProt P68371+Q9H4B7+P0DPH7+P68366+Q13509+Q71U36+P04350+Q3ZCM7+P07437+P68363+Q9BQE3+Q6PEY2+Q13885+Q9BVA1+Q9BUF5); assay: Inhibition of tubulin polymerization (unknown origin); type: protein-complex assay
CCRF-CEM [21] = assay: Antitumour activity against human CCRF-CEM xenografted in mouse assessed as reduction of tumour volume, IT measured after 1 week; type: functional; settings: time 1.0 weeks

O=C1OCC2=C1C(c1ccccc1)c1cc3c(cc1N2CCO)OCCO3 (stereo not drawn)
Activity (A498 [1]): 30%

O=C1OCC2=C1C(c1cccc(Br)c1)c1cc3c(cc1N2CCO)CCC3 (stereo not drawn)
Activity (A498 [1]): 90%

COc1cc(C2C3=C(COC3=O)N(CCO)c3cc4c(cc32)CCC4)cc(OC)c1OC (stereo not drawn)
Activity [2]: 94%
Activity (KOPTK1 [3]): 89%
fold change (FC) (Mus musculus [4]): 2
Activity (KOPTK1 [5]): 85%
fold change (FC) [6]: 2
Activity [7]: 98%
Activity [8]: 85%
Activity (CCRF-CEM [9]): 96%
Activity [10]: 95%
Activity [11]: 96%
inhibition (CCRF-CEM [12]): Active
Activity (Mus musculus [13]): Active
Activity [14]: 90%
Activity (KOPTK1 [15]): 87%
Activity (A498 [16]): Active
Activity (CCRF-CEM [17]): 92%
Activity (A498 [1]): 95%
Activity (CCRF-CEM [18]): 90%
Activity [19]: 90%
Activity [20]: 90%
inhibition (Tubulin (Homo sapiens)): Active
Activity (CCRF-CEM [21]): Active

O=C1OCC2=C1C(c1cccc(C(F)(F)F)c1)c1cc3c(cc1N2CCO)OCCO3 (stereo not drawn)
Activity (A498 [1]): 80%

O=C1OCC2=C1C(c1cccc(C(F)(F)F)c1)c1cc3c(cc1N2CCO)CCC3 (stereo not drawn)
Activity (A498 [1]): 83%

O=C1OCC2=C1C(c1ccccc1)c1cc3c(cc1N2CCO)OCO3 (stereo not drawn)
Activity (A498 [1]): 30%

O=C1OCC2=C1C(c1cccc(Br)c1)c1cc3c(cc1N2CCO)OCCO3 (stereo not drawn)
Activity (A498 [1]): 87%
